Assay results taken from PubChem BioAssay AID256 (DTP/NCI, 2004).
“And” between values parts separate entries of the source, which are not always exact repeats. Identical values can stand only once. Toxic doses and inconclusive results are not listed.

Test system: CD2F1 mice, L1210 leukemia ip, survival T/C
Assay: NCI In Vivo Anticancer Drug Screen. Data for tumor model L1210 Leukemia (intraperitoneal) in CD2F1 (CDF1) mice
Details: endpoint: mean survival time, higher = longer survival
Method in brief: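 Ratio T/C, where T is the treated-group value and C the vehicle-dosed control value, from mice implanted with a transplantable tumor.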

SMILES: CN(C)/N=N/c1nc[nH]c1C(N)=O
- T/C (dose: 1.56 mg/kg/injection, schedule: Q03HX024 (ip), vehicle: steriod suspending solution): 105 % of control
- T/C (dose: 1.56 mg/kg/injection, schedule: Q03HX024 (oral), vehicle: steriod suspending solution): 105 % of control
- T/C (dose: 2.9 mg/kg/injection, schedule: Q01DX009 (ip), vehicle: Klucel (hydroxypropylcellulose) (HPC)): 103 % of control
- T/C (dose: 3.12 mg/kg/injection, schedule: Q03HX024 (ip), vehicle: steriod suspending solution): 115 % of control
- T/C (dose: 3.12 mg/kg/injection, schedule: Q03HX024 (oral), vehicle: steriod suspending solution): 107 % of control
- T/C (dose: 5.7 mg/kg/injection, schedule: Q01DX009 (ip), vehicle: Klucel (hydroxypropylcellulose) (HPC)): 108 % of control
- T/C (dose: 6.25 mg/kg/injection, schedule: Q03HX016 (ip), vehicle: steriod suspending solution): 107 % of control
- T/C (dose: 6.25 mg/kg/injection, schedule: Q03HX016 (oral), vehicle: steriod suspending solution): 110 % of control
- T/C (dose: 6.25 mg/kg/injection, schedule: Q03HX024 (oral), vehicle: steriod suspending solution): 104 % of control
- T/C (dose: 11.4 mg/kg/injection, schedule: Q01DX009 (ip), vehicle: Klucel (hydroxypropylcellulose) (HPC)): 104 % of control and 105 % of control
- T/C (dose: 12.5 mg/kg/injection, schedule: Q01DX001 (ip), vehicle: distilled water + Tween-80): 104 % of control and 105 % of control
- T/C (dose: 12.5 mg/kg/injection, schedule: Q03HX016 (ip), vehicle: steriod suspending solution): 109 % of control
- T/C (dose: 12.5 mg/kg/injection, schedule: Q03HX016 (oral), vehicle: steriod suspending solution): 109 % of control
- T/C (dose: 12.5 mg/kg/injection, schedule: Q03HX024 (ip), vehicle: steriod suspending solution): 116 % of control
- T/C (dose: 22.7 mg/kg/injection, schedule: Q01DX009 (ip), vehicle: Klucel (hydroxypropylcellulose) (HPC)): 115 % of control and 110 % of control
- T/C (dose: 25.0 mg/kg/injection, schedule: Q01DX001 (ip), vehicle: distilled water + Tween-80): 103 % of control and 104 % of control
- T/C (dose: 25.0 mg/kg/injection, schedule: Q01DX009 (ip), vehicle: DMSO): 110 % of control
- T/C (dose: 25.0 mg/kg/injection, schedule: Q01DX009 (ip), vehicle: saline): 117 % of control
- T/C (dose: 25.0 mg/kg/injection, schedule: Q01DX009 (ip), vehicle: water): 113 % of control
- T/C (dose: 25.0 mg/kg/injection, schedule: Q03HX016 (oral), vehicle: steriod suspending solution): 110 % of control
- T/C (dose: 25.0 mg/kg/injection, schedule: Q03HX024 (ip), vehicle: steriod suspending solution): 118 % of control
- T/C (dose: 25.0 mg/kg/injection, schedule: Q03HX024 (oral), vehicle: steriod suspending solution): 122 % of control
- T/C (dose: 25.0 mg/kg/injection, schedule: Q04DX003 (ip), vehicle: other): 110 % of control
- T/C (dose: 25.0 mg/kg/injection, schedule: Q04DX003 (ip), vehicle: water): 105 % of control
- T/C (dose: 45.5 mg/kg/injection, schedule: Q01DX009 (ip), vehicle: Klucel (hydroxypropylcellulose) (HPC)): 115 % of control and 123 % of control
- T/C (dose: 50.0 mg/kg/injection, schedule: Q01DX001 (ip), vehicle: distilled water + Tween-80): 113 % of control and 106 % of control
- T/C (dose: 50.0 mg/kg/injection, schedule: Q01DX005 (ip), vehicle: other): 117 % of control
- T/C (dose: 50.0 mg/kg/injection, schedule: Q01DX009 (ip), vehicle: DMSO): 120 % of control
- T/C (dose: 50.0 mg/kg/injection, schedule: Q01DX009 (ip), vehicle: saline): 116 % of control
- T/C (dose: 50.0 mg/kg/injection, schedule: Q01DX009 (ip), vehicle: steriod suspending solution): 115 % of control
- T/C (dose: 50.0 mg/kg/injection, schedule: Q03DX003 (ip), vehicle: saline): 110 % of control
- T/C (dose: 50.0 mg/kg/injection, schedule: Q03HX016 (ip), vehicle: steriod suspending solution): 115 % of control
- T/C (dose: 50.0 mg/kg/injection, schedule: Q03HX016 (oral), vehicle: steriod suspending solution): 105 % of control
- T/C (dose: 50.0 mg/kg/injection, schedule: Q04DX003 (ip), vehicle: Klucel (hydroxypropylcellulose) (HPC)): 103 % of control
- T/C (dose: 50.0 mg/kg/injection, schedule: Q04DX003 (ip), vehicle: other): 114 % of control
- T/C (dose: 50.0 mg/kg/injection, schedule: Q04DX003 (ip), vehicle: saline): 105 % of control
- T/C (dose: 50.0 mg/kg/injection, schedule: Q04DX003 (ip), vehicle: water): 117 % of control
- T/C (dose: 60.0 mg/kg/injection, schedule: Q04DX003 (ip), vehicle: saline): 88 % of control and 108 % of control
- T/C (dose: 67.0 mg/kg/injection, schedule: Q01DX009 (ip), vehicle: carboxymethylcellulose (CMC)): 160 % of control
- T/C (dose: 80.0 mg/kg/injection, schedule: Q04DX003 (ip), vehicle: saline): 92 % of control and 106 % of control
- T/C (dose: 91.0 mg/kg/injection, schedule: Q01DX009 (ip), vehicle: Klucel (hydroxypropylcellulose) (HPC)): 121 % of control
- T/C (dose: 97.0 mg/kg/injection, schedule: Q01DX009 (ip), vehicle: carboxymethylcellulose (CMC)): 154 % of control
- T/C (dose: 100.0 mg/kg/injection, schedule: Q01DX001 (ip), vehicle: distilled water + Tween-80): 114 % of control and 117 % of control
- T/C (dose: 100.0 mg/kg/injection, schedule: Q01DX009 (ip), vehicle: carboxymethylcellulose (CMC)): 160 % of control
